Entries after “also recorded” stand apart in the source; their conditions may differ.
Tests used:
[1] = test system: normal microglia; assay: Microglia in normal non-tumor bearing mice, flow cytometry; assay type: in vivo, mouse; details: 200 mg/kg once per day for 7 days
Procedure: Data are presented as mean±SEM. […] Circles represent individual mice (n=5-6 per group). P values were obtained using unpaired two-tailed Student's t-test; *P<0.05.
As many immune cell epitopes are papain-sensitive, for investigation of immune cell infiltration by flow cytometric analysis, tumors were digested to a single cell suspension by incubation for 10 minutes at 37° C. with 5 mL of 1.5 mg/ml collagenase III (Worthington) and 0.06 mg/mL DNase I in 1× Hanks Balanced Salt Solution (HBSS) with calcium and magnesium. The cell suspension was then washed with PBS and passed through a 40 μm mesh to remove undigested tissue. To remove myelin debris, the cell pellet was resuspended at room temperature in 15 ml of 25% Percoll prepared from stock isotonic Percoll (90% Percoll [Sigma], 10% 10× HBSS), and then spun for 15 minutes at 1500 rpm (Sorvall Legend RT) with accelerator and brake set to 1. The cell pellet was then washed with lx HBSS prior to being resuspended in FACS buffer.
After counting, cells were incubated with 1 μl of Fc Block for every million cells for at least 15 minutes at 4° C. Cells were then stained with the appropriate antibodies for 10 minutes at 4° C., washed with FACS buffer, and resuspended in FACS buffer containing DAPI (5 mg/ml diluted 1:5000) for live/dead cell exclusion.

[2] = molecular target: >200 kinases; assay: biochemical kinase panel; details: read-out: biochemical IC50 values for >200 kinases tested; except cKIT and PDGFRβ; data not shown
[3] = test system: glioma cells co-cultured with BMDMs; assay: Glioma cell / BMDM co-culture cell cycle analysis; assay type: cell-based, mouse; details: 670 nM BLZ945, 48 hours
Procedure: Media that had been conditioned by glioma tumor cell lines grown in serum free media for 24 hours was passed through 0.22 μm filters to remove cellular debris, and is referred to herein as glioma cell-conditioned media (GCM). GCM was used to stimulate differentiated C57BL/6 WT or β-actin-GFP^+ BMDMs. Control macrophages received fresh media containing 10% FBS and 10 ng/ml recombinant mouse CSF-1.
Following collection of trypsinized co-cultured cells, wells were rinsed in additional media and this volume was collected to ensure harvesting of all macrophages, which adhered tightly to cell culture dishes. Samples were then washed once with FACS buffer, followed by incubation for 10 minutes at room temperature in permeabilizing buffer (10 mM PIPES, 0.1 M NaCl, 2 mM MgCl2, 0.1% Triton X-100, pH 6.8) containing 0.1 mg DAPI (Invitrogen). After acquisition on an LSR II flow cytometer (BD) using a UV laser (350-360 nm), cell cycle status of glioma tumor cells was analyzed using the Flow Jo Dean-Jett-Fox program for cell cycle analysis.

[4] = test system: Mrc1; assay: Mrc1 expression in primary glioma cultures (flow cytometry); assay type: cell-based, mouse; details: CD45+CD11b+ cells
Procedure: Macrodissected tumors were digested to a single cell suspension by incubation for 8-12 minutes at 37° C. as described above. The cell suspension was washed with Neural Stem Cell (NSC) Basal Media (Stem Cell Technologies), and centrifuged at low speed (750 rpm Sorvall Legend RT), to remove debris. To derive mouse primary glioma cultures, the cell pellet was resuspended in DMEM containing 10% FBS (Gibco). These primary cultures were used at early passage (P2-P3), and contain a mixture of different cell types found in gliomas including tumor cells, macrophages, and astrocytes as determined by immunofluorescence staining. Primary glioma cultures were grown for 24 hours on poly-L-lysine coated coverslips (BD Biocoat). Cells were then fixed with 4% PFA in 0.1M phosphate buffer overnight at 4° C., permeabilized with 0.1% Triton-X for 5 minutes and blocked with 0.5% PNB for at least one hour. […]
For mouse primary glioma cultures (containing a mixed population of tumor cells, TAMs, astrocytes etc.; see FIG. 15), 1×10^6 cells were cultivated in DMEM+10% FBS in the presence of the CSF-1R inhibitor or DMSO as vehicle (n=6 independently isolated cultures). […] Cells were counted and incubated with 1 μl of Fc Block (BD Pharmingen) per 10^6 cells for at least 15 minutes at 4° C. […]

[5] = test system: CRL-2467 microglia cell line; assay: MTT assay, CRL-2467 microglia; assay type: cell-based
Procedure: U-87 MG (HTB-14) glioma and CRL-2467 microglia cell lines were purchased from ATCC. The U-87 MG cell line was cultured in DMEM+10% FBS. The CRL-2467 cell line was cultured in DMEM+10% FBS with 30 ng/ml recombinant mouse CSF-1.
Cell growth rate was determined using the MTT cell proliferation kit (Roche). […] Media was changed every 48 hours. BMDM and CRL-2467 cells were supplemented with 10 ng/ml and 30 ng/ml recombinant mouse CSF-1 respectively unless otherwise indicated. Ten μl of MTT labeling reagent was added to each well and then incubated for 4 hours at 37° C., followed by the addition of 100 μl MTT solubilization reagent overnight. The mixture was gently resuspended and absorbance was measured at 595 nm and 750 nm on a SPECTRAMAX 340 pc plate reader (Molecular Devices).

For CNC(=O)c1cc(Oc2ccc3nc(N[C@@H]4CCCC[C@H]4O)sc3c2)ccn1 [BLZ945], the “normal microglia in non-tumor bearing mice” value [1] was “depletes normal microglia”, the IC50 [2] was over 10 µM and the “increase in tumor cell cycle entry with GCM-preconditioned BMDMs” value [3] was “blocked”. The “Mrc1 in primary glioma cultures containing TAMs” value [4] was “decreased” and the “survival / viability of microglia cell line” value [5] was “reduced viability; also recorded: blocks survival”.

Reference: patent US20150119267A1, “INHIBITION OF COLONY STIMULATING FACTOR-1 RECEPTOR SIGNALING FOR THE TREATMENT OF BRAIN CANCER” (SLOAN-KETTERING INSTITUTE FOR CANCER RESEARCH, priority 2012, published 2015)
